Test results reported in patent US20160346255A1, “METHODS, AGENTS AND COMPOSITIONS FOR TREATMENT OF INFLAMMATORY CONDITIONS” (Betanien Hospital, priority 2014, published 2016).
Like-named read-outs stand apart in the source and are kept apart here. Non-standard residues stand in square brackets, D forms with d. Residues, ends and D or L forms follow the SMILES beside them. d(hArg(Et2)) = CCN=C(NCC)NCCCC[C@@H](N)C(=O)O; hArg(Et2) = CCN=C(NCC)NCCCC[C@H](N)C(=O)O; dPhe(4-Cl) = N[C@H](Cc1ccc(Cl)cc1)C(=O)O; d2Nal = N[C@H](Cc1ccc2ccccc2c1)C(=O)O; dCit = NC(=O)NCCC[C@@H](N)C(=O)O; d3Pal = N[C@H](Cc1cccnc1)C(=O)O

Legend:
[1] = system: systemic sclerosis patients; conditions: over 12 months; increased from 7; cited from earlier work
Patient with Lupus = test: Lupus patient treated with degarelix (and earlier therapies); format: in vivo, human; conditions: for Reducing the pain in their extremities / Side effects: previous therapy
Method: Example of Treating a Patient with Lupus with a GnRH Antagonist
Due to their painful condition, they have been followed up by a pain clinic. They were offered a tricyclic antidepressant, amitriptyline 25 mg in March 2014 for their painful condition.
Therefore, we decided to offer […] degarelix. GnRH antagonists have shown anti-inflammatory effects and therefore we considered that degarelix, a depot GnRH antagonist, may have a therapeutic effect in lupus. 09.15.14, […] received […] loading dose of degarelix, 240 mg s.c.
They received their second dose of degarelix in October 2014, 80 mg s.c. They continue on 80 mg s.c. every two weeks.

[2] = system: patients with active longstanding RA; conditions: 5 days of treatment; Kass et al. 2014; cited from earlier work
[3] = system: Patient with Rheumatoid Arthritis; test: Rheumatoid arthritis patient treated with cetrorelix; format: in vivo, human; conditions: at 12 weeks
Method: (§1) • person with seropositive rheumatoid arthritis with disease duration of 10 years. • Fulfilled ACR 2010 classification criteria for rheumatoid arthritis.
• Had tried all therapies available previously without effect. • Offered experimental GnRH antagonist therapy, cetrorelix in 0.5 mg s.c. daily in October 2014, then 0.75 mg s.c. daily in December 2014.

[4] = system: patients with active longstanding RA; test: Double-blinded randomised study of cetrorelix in active longstanding RA (NCT00667758, AGRA); format: in vivo, human; conditions: preceding the P1NP reduction at day 10
Excerpt: The manuscript by Kass et al., 2014 Scand. J. Rheumatol., 43 (1), 22-27, describes a short term study of a GnRH antagonist, Cetrorelix (AGRA study). This is the first human study of GnRH antagonist treatment in an inflammatory disease. […] However, some patients did show some response and the response was thought to be limited to patients with above normal levels of LH and FSH (Abstract to the 13th annual American College of Rheumatology meeting). […] However, current TNFα inhibiting therapy in rheumatoid arthritis is long term. […] There are several examples in medicine that give positive immediate effects in disease but are unsuitable for long term use, either due to lack of efficacy, safety or both.
In this double-blinded, single-site study in Norway (ClinicalTrials.gov NCT00667758), 99 patients with active longstanding RA, were randomised to predefined intention-to-treat populations using computer-generated allocation (1:1) in dynamic blocks stratified for sex. Patients were assigned to subcutaneous cetrorelix (n=48) (5 mg days 1-2, 3 mg days 3-5) or placebo (n=51). P1NP was measured on day 10. We investigated serum P1NP between groups, a predefined secondary endpoint. Detailed efficacy and safety data are presented separately.

mice = test: Mouse study of preventing age related inflammation with cetrorelix; format: in vivo; conditions: 0.5 mg/kg daily with or without gonadal hormone replacement
Method: An animal study is conducted with 40 fertile female mice aged approximately 6-20 months in a control group (group 1) receiving placebo, 40 age and sex matched mice receiving a drug that reduces the activity of GnRH (group 2), such as cetrorelix 0.5 mg/kg daily, and 40 age and sex matched mice receiving the same GnRH inhibitor as group 2, but with the additional replacement of gonadal hormone (oestrogen) to age adjusted pre-chosen levels. All mice are followed prospectively, and evaluated for systemic inflammation markers, atherosclerosis, osteoporosis, LDL, and age at death. The same three interventions and assessments are carried out in three groups of male mice with 40 male mice in each group, aged approximately 6-20 months, replacing the gonadal hormone testosterone to pre-chosen levels in group 3. Mice treated with a drug that reduces the activity of GnRH, such as cetrorelix 0.5 mg/kg daily with or without the replacement of gonadal hormone (preferably with) reach a higher age at death compared with mice in the placebo groups. These mice also show less atherosclerosis, osteoporosis and systemic inflammation than mice in the placebo groups.

[5] = system: Patient with Osteoarthritis; test: Intra-articular cetrorelix in a patient with osteoarthritis; format: in vivo, human; conditions: 1 mg injected into both knees; 2 week post injection
Method: • person with osteoarthritis of both knees diagnosed by X-ray 10 years ago. • Has had synovitis secondary to osteoarthritis in both knees for the last month, confirmed by synovitis on ultrasound. • In order to treat the secondary inflammation as a result of their knee osteoarthritis, they are offered intra-articular GnRH antagonist treatment, for example cetrorelix 1 mg injected into both knees. Subcutaneous cetrorelix for injection can be used. • Before and 2 week post injection ultrasound images are taken to show a decrease in synovitis in the knee joint.

patients with IBD = conditions: week 2 after an infusion; cited from earlier work
[6] = system: Patient with Spondyloarthritis; test: Spondyloarthritis patient treated with oral relugolix; format: in vivo, human; conditions: 400 mg daily; at 12 weeks, remission; baseline 5
Method: • person with spondyloarthritis with disease duration of 5 years.
• Is offered experimental GnRH antagonist therapy, relugolix 400 mg daily for 12 weeks.
• Disease activity in ankylosing spondylitis/spondyloarthritis is measured by the BASDAI score. His BASDAI is 5 at baseline.

[7] = system: Patient with Ankylosing Spondylitis; test: Ankylosing spondylitis patient treated with degarelix (and earlier TNF inhibitors); format: in vivo, human; conditions: ankylosing spondylitis patient
Excerpt: Example of Treating a Patient with Ankylosing Spondylitis with a GnRH Antagonist
Diagnosed with ankylosing spondylitis in 1984, HLAB27 positive, with repeated iridocyclitis. Used non-steroidal anti-inflammatory drugs previously. They were offered the TNFα inhibitor Golilimumab in 2010. Their disease activity score was 8.9 in October 2010 (see below for explanation of disease activity score) on initiating Golilimumab; by the June 2012 this score had reduced to 6.6, but by May 2013 the effect had worn off and their score was 7.6. May 2013, they initiated Enbrel treatment, but their disease activity increased from 7.6 to 8.3. Due to their poor response to TNFα therapy, they were offered the GnRH antagonist degarelix in September 2014.
Disease activity in ankylosing spondylitis is measured by the BASDAI (Bath Ankylosing Spondylitis Disease Activity Index (1)), which has been extensively validated in clinical trials, 2, 3 and is one of the most commonly used outcome measures in clinical trials. This is a composite index that evaluates fatigue, axial and peripheral pain, stiffness and enthesopathy. Their BASDAI was at 8.7 at baseline. In September 2014 they received their first dose of degarelix 240 mg s.c. By 2 weeks, their BASDAI had reduced to 6.8, and by 6 weeks it had reduced to 5.8. This is the lowest BASDAI score they have ever had since we first started using this method of assessment 4 years ago in 2010. Their morning stiffness lasted 4 hours at baseline, by 6 weeks their morning stiffness had reduced to 2 hours. They had their second dose of degarelix 80 mg s.c in October 2014. Lumbar flexion and maximum arm abduction were increased after 6 weeks of treatment.
Response to therapy in clinical practice is defined as improvement of 2 units or 50% on a 0-10 scale of the BASDAI, and expert opinion that the treatment should be continued. Their reduction by 6 weeks was 2.9 units, and 7.1 units with an 82% BASDAI score improvement by 9 weeks, and we shall continue treatment. A BASDAI 50% improvement is defined as a major clinical response. […] For comparison, approximately 50-60% of patients achieve a BASDAI 50 by 12 weeks on TNF inhibitors (4). Their ESR has decreased from 46 mm to 23 mm, which is their lowest ESR reading in 19 years. […] By 9 weeks of GnRH antagonist therapy, their kidney function has normalized, and fasting glucose reduced from 7.4 to 6.5 mmol/L. By 3 months, the effect on their ankylosing spondylitis remained, creatinine was at 98 μmol/L, with a glomerular filtration rate of 66 ml/min/1.73 m^2 in December 2014.

Patient with Tendonitis = test: Tendonitis patient treated with ganirelix injection; format: in vivo, human; conditions: 1.5 mg injected around the affected tendon; 2 week post injection
Method: • person diagnosed with tendonitis of the elbow with ultrasound confirming tendonitis.
• Treated with an injection of GnRH antagonist, ganirelix 1.5 mg, around the affected tendon.
• Before and 2 week post injection ultrasound images are taken to show a decrease in tendonitis of the elbow. […] Such injections may be administered over the long-term, for example every 3 months to maintain optimal effect.

[8] = system: Patient with Rheumatoid Arthritis; test: Rheumatoid arthritis patient treated with ganirelix; format: in vivo, human; conditions: at 4 months
Method: as §1
• Had tried almost all available rheumatoid arthritis therapies available previously without effect. • Offered experimental GnRH antagonist therapy, ganirelix 0.75 mg s.c. daily (0.25 mg s.c. three times a day).
• Disease activity score (DAS) reduction from 5.5 to 2.2 (remission). • A DAS reduction of 0.6 units is defined as a clinical response to treatment (1). • […] ESR decreased from 28 mm to 19 mm, with a normalization of their CRP from 23 mg/L to 5 mg/L. This is supported by the decrease in their anti-cyclic citrullinated peptide (CCP) antibodies from 27 μ/mL to 14 μ/mL.

[9] = system: patients with psoriasis who were taking lithium; conditions: 15 patients, after 10 weeks, cited from earlier work

Compound: O=P1(N(CCCl)CCCl)NCCCO1 (stereo not shown) [cyclophosphamide]
- Digital ulcers, average number [1]: 9 ulcers

Compound: Cn1cnc([N+](=O)[O-])c1Sc1ncnc2nc[nH]c12 [azathioprine]
- Reducing the pain in their extremities (Patient with Lupus): not effective
- Side effects (Patient with Lupus): intolerable side effects such as mouth ulcers

Compound: CC(=O)N[C@H](Cc1ccc2ccccc2c1)C(=O)N[C@H](Cc1ccc(Cl)cc1)C(=O)N[C@H](Cc1cccnc1)C(=O)N[C@@H](CO)C(=O)N[C@@H](Cc1ccc(O)cc1)C(=O)N[C@H](CCCNC(N)=O)C(=O)N[C@@H](CC(C)C)C(=O)N[C@@H](CCCNC(=N)N)C(=O)N1CCC[C@H]1C(=O)N[C@H](C)C(N)=O [cetrorelix] (Ac-[d2Nal][dPhe(4-Cl)][d3Pal]SY[dCit]LRP[dA]-NH2)
- Primary end-point with regard to clinical response [2]: did not meet the primary end-point
- TNFα [2]: possible reduction
- Disease activity score (DAS) ([3]; 0.5 then 0.75 mg s.c. daily, from 6.1): 5.5
- CRP ([3]; from 41 mg/L): 18 mg/L
- Rheumatoid factor ([3]; from 137 kIU/L): 111 kIU/L
- ESR ([3]; normalized from 35 mm): 28 mm
- Disease activity markers and TNF-α (log pg/mL) [4]: significant reductions
- Age at death vs placebo groups (mice): higher
- Atherosclerosis vs placebo groups (mice): less
- Osteoporosis vs placebo groups (mice): less
- Systemic inflammation vs placebo groups (mice): less
- Synovitis in the knee joint on ultrasound [5]: decrease

Compound: infliximab: anti-TNFα monoclonal antibody
- Fecal calprotectin concentration (patients with IBD): decreases significantly

Compound: CONC(=O)Nc1ccc(-c2sc3c(c2CN(C)C)c(=O)n(-c2ccc(OC)nn2)c(=O)n3Cc2c(F)cccc2F)cc1 [relugolix]
- BASDAI [6]: 1.2

Compound: Golilimumab: TNFα inhibitor Golilimumab
- Disease activity score (BASDAI) ([7]; June 2012, 8.9 on initiating in October 2010): 6.6
- Disease activity score (BASDAI) ([7]; May 2013, effect had worn off): 7.6

Compound: CN(C)CCC=C1c2ccccc2CCc2ccccc21 [amitriptyline]
- Effect on pain (Patient with Lupus; 25 mg, March 2014): no effect
- Effect on pain (Patient with Lupus; 50 mg, April 2014): no effect
- Effect on pain (Patient with Lupus; 150 mg daily): no effect

Compound: CCN=C(NCC)NCCCC[C@H](NC(=O)[C@H](CC(C)C)NC(=O)[C@@H](CCCCNC(=NCC)NCC)NC(=O)[C@H](Cc1ccc(O)cc1)NC(=O)[C@H](CO)NC(=O)[C@@H](Cc1cccnc1)NC(=O)[C@@H](Cc1ccc(Cl)cc1)NC(=O)[C@@H](Cc1ccc2ccccc2c1)NC(C)=O)C(=O)N1CCC[C@H]1C(=O)N[C@H](C)C(N)=O [ganirelix] (Ac-[d2Nal][dPhe(4-Cl)][d3Pal]SY[d(hArg(Et2))]L[hArg(Et2)]P[dA]-NH2)
- Tendonitis of the elbow on ultrasound (Patient with Tendonitis): decrease
- Disease activity score (DAS) ([8]; 0.75 mg s.c. daily, remission, from 5.5): 2.2
- Anti-cyclic citrullinated peptide (CCP) antibodies ([8]; from 27 μ/mL): 14 μ/mL
- ESR ([8]; from 28 mm): 19 mm
- Rheumatoid factor ([8]; from 113 kIU/L): 75 kIU/L
- CRP ([8]; normalization from 23 mg/L): 5 mg/L

Compound: COc1c(C)c2c(c(O)c1C/C=C(\C)CCC(=O)OCCN1CCOCC1)C(=O)OC2 [mycophenolate mofetil]
- Reducing the pain in their extremities (Patient with Lupus): not effective
- Side effects (Patient with Lupus): intolerable side effects such as mouth ulcers

Compound: O[C@H]1[C@H](O)[C@@H](O)[C@H](O)[C@@H](O)[C@H]1O [inositol]
- Median PASI score reduction [9]: 35%
- Median PASI score reduction ([9]; median pretreatment PASI 4.9): 1.7 points

Compound: NCC1(CC(=O)O)CCCCC1 [gabapentin]
- Effect on pain (Patient with Lupus; 100 mg×3 up to 1200 mg×3): no effect

Compound: CN(Cc1cnc2nc(N)nc(N)c2n1)c1ccc(C(=O)N[C@@H](CCC(=O)O)C(=O)O)cc1 [methotrexate]
- Reducing the pain in their extremities (Patient with Lupus): not effective
- Side effects (Patient with Lupus): intolerable side effects such as mouth ulcers

Compound: CC(C)C[C@H](CN)CC(=O)O [pregabalin]
- Effect on pain (Patient with Lupus; up to 150 mg×2): no effect

Compound: Enbrel
- Disease activity score (BASDAI) ([7]; treatment initiated May 2013 at 7.6): 8.3
